Assay results taken from patent US8008301B2, “Histamine H3 receptor agents, preparation and therapeutic uses” (Eli Lilly and Company, priority 2004, dated 2011).

Target: T1, H3R membranes (H3R8-expressing HEK293 cell line) (Homo sapiens, UniProt Q9Y5N1)
T1 construct: expressed in transfected cells; membranes
Assay: [35S] GTPγ[S] binding assay, antagonist activity in the presence of agonist R(-)alpha methylhistamine
Format: biochemical
Conditions: inhibition of [35S]GTPγS binding to H3R membranes in presence of agonist
Protocol: Membranes isolated as described in (Preparation of Histamine Receptor Subtype Membranes) were used in a [35S]GTPχS functional assay. Binding of [35S]GTPχS to membranes indicates agonist activity. Compounds of the invention of Formula I or Formula II were tested for their ability to inhibit binding in the presence of agonists. Alternately, the same transfected cell lines were used for a cAMP assay wherein H3R agonists inhibited forskolin-activated synthesis of cAMP. Compounds of Formula I or Formula II were tested for their ability to permit forskolin-stimulated cAMP synthesis in the presence of agonist.
Antagonist activity of selected compounds was tested for inhibition of [35S] GTP γ [S] binding to H3R membranes in the presence of agonists. Assays were run at room temperature in 20 mM HEPES, 100 mM NaCl, 5 mM MgCl2 and 10 uM GDP at pH 7.4 in a final volume of 200 ul in 96-well Costar plates. Membranes isolated from H3R8-expressing HEK293 cell line (20 ug/well) and GDP were added to each well in a volume of 50 μl assay buffer. Antagonist was then added to the wells in a volume of 50 μl assay buffer and incubated for 15 minutes at room temperature. […] Plates were counted in Wallac Trilux 1450 Microbeta scintillation counter for 1 minute. […]

T1 sequence (Q9Y5N1 whole entry): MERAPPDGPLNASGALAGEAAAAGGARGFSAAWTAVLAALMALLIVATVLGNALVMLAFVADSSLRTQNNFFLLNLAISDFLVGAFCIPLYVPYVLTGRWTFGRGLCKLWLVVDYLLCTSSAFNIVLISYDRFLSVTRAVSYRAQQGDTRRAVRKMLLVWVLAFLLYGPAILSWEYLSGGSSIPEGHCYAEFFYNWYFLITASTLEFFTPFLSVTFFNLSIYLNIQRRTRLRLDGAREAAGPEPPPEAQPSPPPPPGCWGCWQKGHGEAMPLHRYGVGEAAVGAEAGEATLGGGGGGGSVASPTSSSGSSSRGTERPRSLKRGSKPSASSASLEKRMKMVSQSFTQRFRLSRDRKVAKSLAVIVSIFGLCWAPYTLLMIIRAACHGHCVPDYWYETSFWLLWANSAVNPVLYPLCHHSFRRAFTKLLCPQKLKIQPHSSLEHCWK

**Q.** Which Ki does the source give for `O=C(c1ccc(-c2ccccn2)cc1)N1CCC[C@H]1CN1CCCC1` here?
**A.** 49 nM
